Assay: xn = mol fraction of the nth substance listed
Conditions: 100 kPa

CCCC[P+](CC)(CC)CC.Cc1ncc([N+](=O)[O-])[n-]1 + COCCOCCOCCOCCOC
viscosity [mPa·s]
Conditions	278.15 K	283.15 K	288.15 K	293.15 K	298.15 K	303.15 K	308.15 K	313.15 K	318.15 K	323.15 K
x2 = 0.048	–	975	634	428	299	215	–	121	94	74
x2 = 0.102	972	–	421	291	–	153	116	–	71	57
x2 = 0.201	516	350	243	175	–	99	77	62	–	–
x2 = 0.299	258	183	134	100	76	60	–	–	–	–
x2 = 0.401	134	–	74	57	–	–	–	–	–	–
x2 = 0.501	74	–	–	–	–	–	–	–	–	–

CCCCCCCC[P+](CC)(CC)CC.O=[N+]([O-])c1cn[n-]c1 + COCCOCCOCCOCCOC
viscosity [mPa·s]
Conditions	278.15 K	283.15 K	288.15 K	293.15 K	298.15 K	303.15 K	308.15 K	313.15 K	318.15 K	323.15 K
x2 = 0	1340	–	–	398	282	207	155	119	–	75
x2 = 0.051	1010	666	452	317	229	–	130	101	80	65
x2 = 0.102	693	471	–	234	172	130	101	80	64	52
x2 = 0.199	395	277	199	147	112	87	–	–	–	–
x2 = 0.3	229	166	123	94	73	58	–	–	–	–
x2 = 0.404	129	–	74	59	–	–	–	–	–	–
x2 = 0.503	–	60	–	–	–	–	–	–	–	–

CCC=C[n+]1ccn(C)c1C.O=[N+]([O-])c1cn[n-]c1 + COCCOCCOCCOCCOC
viscosity [mPa·s]
Conditions	278.15 K	283.15 K	288.15 K	293.15 K	298.15 K	303.15 K	308.15 K	313.15 K	318.15 K	323.15 K
x1 = 0.4	70	51	–	–	–	–	–	–	–	–
x1 = 0.5	139	97	70	53	–	–	–	–	–	–
x1 = 0.601	–	176	121	–	65	–	–	–	–	–
x1 = 0.701	622	385	249	169	–	89	69	53	–	–
x1 = 0.801	1280	737	447	288	195	–	101	77	60	–
x1 = 0.9	2810	–	–	525	338	228	161	–	89	70
x1 = 0.952	–	2200	–	706	–	289	204	140	104	–

CC(=O)[O-].CCCCCCCCCCCCCC[P+](CCCCCC)(CCCCCC)CCCCCC + COCCOCCOCCOCCOC
viscosity [mPa·s]
Conditions	278.15 K	283.15 K	288.15 K	293.15 K	298.15 K	303.15 K	308.15 K	313.15 K	318.15 K	323.15 K
x2 = 0.103	1160	789	–	392	–	216	166	–	103	84
x2 = 0.207	–	–	332	244	184	142	112	89	73	60
x2 = 0.299	401	291	215	162	125	99	79	64	53	–
x2 = 0.4	257	191	–	111	–	70	57	–	–	–
x2 = 0.499	–	121	92	73	58	–	–	–	–	–

CCCCCC[n+]1ccn(C)c1.O=S(=O)([N-]S(=O)(=O)C(F)(F)F)C(F)(F)F + COCCOCCOCCOCCOC
x2 = 0
Conditions	viscosity [mPa·s]
278.15 K	204
283.15 K	151
288.15 K	115
293.15 K	89

COCCOCCOCCOCCOC + CCCCCC[n+]1ccn(C)c1.O=S(=O)([N-]S(=O)(=O)C(F)(F)F)C(F)(F)F
viscosity [mPa·s]
Conditions	x1 = 0.099	x1 = 0.19	x1 = 0.276	x1 = 0.413	x1 = 0.544
278.15 K	171	130	109	78	50
283.15 K	126	97	81	60	–
288.15 K	–	74	63	–	–
293.15 K	74	57	–	–	–

CCCCCCCCCCCC[P+](CCCC)(CCCC)CCCC.c1c[n-]nn1 + COCCOCCOCCOCCOC
viscosity [mPa·s]
Conditions	x2 = 0.062	x2 = 0.123	x2 = 0.155	x2 = 0.214	x2 = 0.305	x2 = 0.395	x2 = 0.495	x2 = 0.596
278.15 K	1980	1230	907	671	–	226	131	–
283.15 K	1260	809	608	458	256	165	98	57
288.15 K	824	–	419	320	186	–	75	–
293.15 K	557	–	297	231	139	95	–	–
298.15 K	389	276	218	171	–	74	–	–
303.15 K	280	203	164	130	84	59	–	–

CCCCCC[n+]1ccn(C)c1C.O=S(=O)([N-]S(=O)(=O)C(F)(F)F)C(F)(F)F + COCCOCCOCCOCCOC
Conditions	viscosity [mPa·s]
278.15 K, x2 = 0	485
278.15 K, x2 = 0.102	370
278.15 K, x2 = 0.205	251
278.15 K, x2 = 0.306	161
278.15 K, x2 = 0.399	109
278.15 K, x2 = 0.499	70
278.15 K, x2 = 0.599	48
283.15 K, x2 = 0	335
283.15 K, x2 = 0.102	258
283.15 K, x2 = 0.205	177
283.15 K, x2 = 0.306	116
283.15 K, x2 = 0.399	81
283.15 K, x2 = 0.499	53
288.15 K, x2 = 0	236
288.15 K, x2 = 0.102	184
288.15 K, x2 = 0.205	129
288.15 K, x2 = 0.306	86
288.15 K, x2 = 0.399	61
293.15 K, x2 = 0	172
293.15 K, x2 = 0.205	96
298.15 K, x2 = 0.205	74
303.15 K, x2 = 0	99
303.15 K, x2 = 0.102	80
303.15 K, x2 = 0.205	58
308.15 K, x2 = 0	78
313.15 K, x2 = 0	63
313.15 K, x2 = 0.102	52

CCCCCCCC[P+](CC)(CC)CC.O=[N+]([O-])c1c[n-]cn1 + COCCOCCOCCOCCOC
viscosity [mPa·s]
Conditions	278.15 K	283.15 K	288.15 K	293.15 K	298.15 K	303.15 K	308.15 K	313.15 K	318.15 K	323.15 K
x1 = 0.499	77	60	–	–	–	–	–	–	–	–
x1 = 0.599	–	93	72	56	–	–	–	–	–	–
x1 = 0.699	–	153	–	87	69	55	–	–	–	–
x1 = 0.8	385	274	198	148	113	88	70	57	–	–
x1 = 0.9	700	481	337	243	–	137	107	85	69	56
x1 = 1	–	838	–	398	286	212	160	124	98	78

CCCn1cc[n+](C)c1C.O=[N+]([O-])c1cn[n-]c1 + COCCOCCOCCOCCOC
viscosity [mPa·s]
Conditions	278.15 K	283.15 K	288.15 K	293.15 K	298.15 K	303.15 K	308.15 K	313.15 K	318.15 K	323.15 K
x2 = 0.05	5420	2660	1400	798	487	314	213	150	111	84
x2 = 0.1	3220	–	–	552	350	234	163	118	90	70
x2 = 0.201	1300	–	–	287	194	137	100	–	59	–
x2 = 0.302	546	338	218	149	106	79	61	–	–	–
x2 = 0.399	–	167	115	83	–	–	–	–	–	–
x2 = 0.499	125	–	64	–	–	–	–	–	–	–
x2 = 0.6	65	–	–	–	–	–	–	–	–	–

CCCCCCCCCCCCCC[P+](CCCCCC)(CCCCCC)CCCCCC.O=[N+]([O-])c1c[n-]cn1 + COCCOCCOCCOCCOC
viscosity [mPa·s]
Conditions	278.15 K	283.15 K	288.15 K	293.15 K	298.15 K	303.15 K	308.15 K	313.15 K	318.15 K	323.15 K
x2 = 0.189	–	–	726	522	384	290	222	173	138	111
x2 = 0.404	443	324	240	180	135	–	85	70	57	–
